Measurements: US20240360116A1, “BICYCLIC DERIVATIVES” (ELANCO TIERGESUNDHEIT AG, priority 2020, published 2024)
Where “and” joins values, the source holds several entries; their conditions need not be identical. Equal values may be shown once.

Tests used:
D. immitis Slo-1 = D. immitis Slo-1 (Dirofilaria immitis, UniProt I0DFK5); assay: In Vitro Assay 2: D. immitis Slo-1 recombinant CHO cell line, membrane potential; assay type: cell-based; details: EC50, CHO cells expressing D. immitis Slo-1, voltage sensitive dye, FLIPR Tetra, 70 mM KCl
Sequence of D. immitis Slo-1 (I0DFK5 1-1119): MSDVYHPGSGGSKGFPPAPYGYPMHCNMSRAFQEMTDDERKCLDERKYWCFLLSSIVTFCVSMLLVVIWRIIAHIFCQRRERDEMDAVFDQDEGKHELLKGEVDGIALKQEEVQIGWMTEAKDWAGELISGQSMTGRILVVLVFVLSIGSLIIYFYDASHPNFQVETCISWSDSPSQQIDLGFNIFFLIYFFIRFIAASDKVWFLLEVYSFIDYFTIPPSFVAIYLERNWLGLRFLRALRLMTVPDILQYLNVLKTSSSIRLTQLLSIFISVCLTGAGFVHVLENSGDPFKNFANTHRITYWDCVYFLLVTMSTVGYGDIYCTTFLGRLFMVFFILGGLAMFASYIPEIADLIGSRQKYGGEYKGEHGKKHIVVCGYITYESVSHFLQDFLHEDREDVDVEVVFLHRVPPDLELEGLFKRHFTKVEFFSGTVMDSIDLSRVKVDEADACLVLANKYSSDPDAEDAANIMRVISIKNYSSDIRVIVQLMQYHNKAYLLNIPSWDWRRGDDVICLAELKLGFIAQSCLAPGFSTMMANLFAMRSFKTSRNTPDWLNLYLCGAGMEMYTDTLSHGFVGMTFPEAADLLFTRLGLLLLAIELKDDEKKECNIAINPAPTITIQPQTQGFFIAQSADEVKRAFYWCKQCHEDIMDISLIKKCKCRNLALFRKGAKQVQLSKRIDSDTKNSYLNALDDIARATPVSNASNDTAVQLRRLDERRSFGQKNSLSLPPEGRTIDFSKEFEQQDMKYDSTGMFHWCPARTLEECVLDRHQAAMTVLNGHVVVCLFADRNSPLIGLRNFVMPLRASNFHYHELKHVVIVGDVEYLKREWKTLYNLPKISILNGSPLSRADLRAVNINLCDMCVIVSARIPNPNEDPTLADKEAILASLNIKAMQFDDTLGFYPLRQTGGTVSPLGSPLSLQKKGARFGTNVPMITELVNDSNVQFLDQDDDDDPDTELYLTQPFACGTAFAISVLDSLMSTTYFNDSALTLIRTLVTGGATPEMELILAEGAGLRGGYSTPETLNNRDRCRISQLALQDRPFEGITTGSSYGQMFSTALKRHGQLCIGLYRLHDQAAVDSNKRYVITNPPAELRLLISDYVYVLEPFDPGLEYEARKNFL

[1] = system: Adult Nippostrongylus brasiliensis; assay: In Vitro Assay 5: Nippostrongylus brasiliensis (NIPOBR), acetylcholine esterase readout; details: adult worms, tested at 10, 1 and 0.1 ppm, vs negative control
Experimental: Adult Nippostrongylus brasiliensis were washed with saline buffer containing 100 U/ml penicillin, 0.1 mg/ml streptomycin and 2.5 μg/ml amphotericin B. Test compounds were dissolved in DMSO and worms were incubated in medium in a final concentration of 10 μg/ml (10 ppm), 1 μg/ml (1 ppm) and 0.1 μg/ml (0.1 ppm) respectively. An aliquot of the medium was used to determine the acetylcholine esterase activity in comparison to a negative control. The principle of measuring acetylcholine esterase as readout for anthelmintic activity was described in Rapson et al (1986) and Rapson et al (1987).
Based on the evaluation of a wide concentration range, concentration-response curves as well as EC50-values were calculated.

[2] = system: Dirofilaria immitis microfilariae; assay: In Vitro Assay 3: Dirofilaria immitis microfilariae (DIROIM L1); details: 72 h, read-out: EC50 (reduction of motility)
[3] = system: Dirofilaria immitis third-stage larvae; assay: In Vitro Assay 4: Dirofilaria immitis (DIROIM L4); details: 72 h, read-out: EC50 (reduction of motility)

Compound | EC50 (D. immitis Slo-1) | EC50 [1] | EC50 [2] | EC50 [3]
O=C(NN1CCOc2ccccc21)c1cnc2c(-c3cc(F)cc(F)c3F)c(F)ccc2c1C1CSC1 [Example 5.85, N-(2,3-dihydro-1,4-benzoxazin-4-yl)-7-fluoro-4-(thietan-3-yl)-8-(2,3,5-trifluorophenyl)quinoline-3-carboxamide] | < 100 nM | < 0.1 µg/mL | – | –
O=C(NN1C(=O)COc2ccccc21)c1cnc2c(-c3cc(F)cc(F)c3F)cccc2c1N1CCOCC1 [Example 5.109, 4-morpholino-N-(3-oxo-2,3-dihydro-4H-benzo[b][1,4]oxazin-4-yl)-8-(2,3,5-trifluorophenyl)quinoline-3-carboxamide] | 100 to 1000 nM | – | – | –
O=C(NN1CCOc2ccc(F)cc21)c1cnc2c(-c3cc(F)cc(F)c3F)c(F)ccc2c1N1CC(F)C1 [Example 5.98, 7-fluoro-N-(6-fluoro-2,3-dihydro-4H-benzo[b][1,4]oxazin-4-yl)-4-(3-fluoroazetidin-1-yl)-8-(2,3,5-trifluorophenyl)quinoline-3-carboxamide] | 100 to 1000 nM | – | – | –
O=C(NN1CCOc2ccccc21)c1cnc2c(-c3cc(F)cc(F)c3F)c(F)ccc2c1N1CC(F)C1 [Example 5.78, N-(2,3-dihydro-1,4-benzoxazin-4-yl)-7-fluoro-4-(3-fluoroazetidin-1-yl)-8-(2,3,5-trifluorophenyl)quinoline-3-carboxamide] | < 100 nM | – | – | –
O=C(NN1CCOc2ccccc21)c1cnc2c(-c3cc(Cl)cc(F)c3F)c(F)ccc2c1N1CC(F)C1 [Example 5.79, 8-(5-chloro-2,3-difluoro-phenyl)-N-(2,3-dihydro-1,4-benzoxazin-4-yl)-7-fluoro-4-(3-fluoroazetidin-1-yl)quinoline-3-carboxamide] | 100 to 1000 nM | < 0.1 µg/mL | – | –
CN(c1c(C(=O)NN2CCOc3ccccc32)cnc2c(-c3cc(F)cc(F)c3F)c(F)ccc12)C1CC(F)C1 (stereo not shown) [Example 5.87, N-(2,3-dihydro-1,4-benzoxazin-4-yl)-7-fluoro-4-[(3-fluorocyclobutyl)-methyl-amino]-8-(2,3,5-trifluorophenyl)quinoline-3-carboxamide] | – | < 0.1 µg/mL | – | –
C=C(C)c1c(C(=O)NN2CCOc3ccc(F)cc32)cnc2c(-c3cc(F)cc(F)c3F)c(F)ccc12 [Example 5.99, 7-fluoro-N-(6-fluoro-2,3-dihydro-4H-benzo[b][1,4]oxazin-4-yl)-4-(prop-1-en-2-yl)-8-(2,3,5-trifluorophenyl)quinoline-3-carboxamide] | 100 to 1000 nM | – | – | –
COC1CN(c2c(C(=O)NN3CCOc4ccccc43)cnc3c(-c4cc(F)cc(F)c4F)c(F)ccc23)C1 [Example 5.84, N-(2,3-dihydro-1,4-benzoxazin-4-yl)-7-fluoro-4-(3-methoxyazetidin-1-yl)-8-(2,3,5-trifluorophenyl)quinoline-3-carboxamide] | 100 to 1000 nM | – | – | –
O=C(NN1CCOc2ccc(F)cc21)c1cnc2c(-c3cc(F)cc(F)c3F)c(F)ccc2c1N1CCOCC1 [Example 5.83, 7-fluoro-N-(6-fluoro-2,3-dihydro-1,4-benzoxazin-4-yl)-4-morpholino-8-(2,3,5-trifluorophenyl)quinoline-3-carboxamide] | < 100 nM | < 0.1 µg/mL | < 0.1 µg/mL | < 0.1 µg/mL
O=C(NN1CCOc2ccccc21)c1cnc2c(-c3cc(F)cc(F)c3F)c(F)ccc2c1C1CC(F)(F)C1 [Example 5.95, 4-(3,3-difluorocyclobutyl)-N-(2,3-dihydro-4H-benzo[b][1,4]oxazin-4-yl)-7-fluoro-8-(2,3,5-trifluorophenyl)quinoline-3-carboxamide] | < 100 nM | – | – | –
O=C(NN1CCOc2ccc(F)cc21)c1cnc2c(-c3cc(F)cc(F)c3F)c(F)ccc2c1C1CCOC1 (stereo not shown) [Example 5.97, 7-fluoro-N-(6-fluoro-2,3-dihydro-4H-benzo[b][1,4]oxazin-4-yl)-4-(tetrahydrofuran-3-yl)-8-(2,3,5-trifluorophenyl)quinoline-3-carboxamide] | < 100 nM | – | – | –
O=C(NN1CCOc2ccc(F)cc21)c1cnc2c(-c3cc(F)cc(F)c3F)c(F)ccc2c1C1CS(=O)(=O)C1 [Example 5.106, 4-(1,1-dioxidothietan-3-yl)-7-fluoro-N-(6-fluoro-2,3-dihydro-4H-benzo[b][1,4]oxazin-4-yl)-8-(2,3,5-trifluorophenyl)quinoline-3-carboxamide] | 100 to 1000 nM | < 0.1 µg/mL | – | –
O=C(NN1CCOc2ccccc21)c1cnc2c(-c3cc(C(F)(F)F)cc(F)c3F)c(F)ccc2c1N1CC(F)C1 [Example 5.96, 8-(2,3-difluoro-5-(trifluoromethyl)phenyl)-N-(2,3-dihydro-4H-benzo[b][1,4]oxazin-4-yl)-7-fluoro-4-(3-fluoroazetidin-1-yl)quinoline-3-carboxamide] | 100 to 1000 nM | – | – | –
O=C(NN1CCOc2ccccc21)c1cnc2c(-c3cc(C(F)(F)F)cc(F)c3Br)cccc2c1N1CCOCC1 [Example 5.80, 8-[2-bromo-3-fluoro-5-(trifluoromethyl)phenyl]-N-(2,3-dihydro-1,4-benzoxazin-4-yl)-4-morpholino-quinoline-3-carboxamide] | < 100 nM | < 0.1 µg/mL | – | –
O=C(NN1CCOc2ccccc21)c1cnc2c(-c3cc(F)cc(F)c3F)c(F)ccc2c1C1CS(=O)(=O)C1 [Example 5.86, N-(2,3-dihydro-1,4-benzoxazin-4-yl)-4-(1,1-dioxothietan-3-yl)-7-fluoro-8-(2,3,5-trifluorophenyl)quinoline-3-carboxamide] | 100 to 1000 nM | – | – | –
O=C(NN1CCOc2ccccc21)c1cnc2c(-c3cc(F)cc(F)c3F)c(F)ccc2c1N1C[C@@H](F)[C@@H](F)C1 (single isomer, unassigned) [Example 5.89, 4-(3,4-difluoropyrrolidin-1-yl)-N-(2,3-dihydro-1,4-benzoxazin-4-yl)-7-fluoro-8-(2,3,5-trifluorophenyl)quinoline-3-carboxamide] | < 100 nM | < 0.1 µg/mL | – | < 0.1 µg/mL
O=C1CC(c2c(C(=O)NN3CCOc4ccccc43)cnc3c(-c4cc(F)cc(F)c4F)c(F)ccc23)C1 [Example 5.82, N-(2,3-dihydro-1,4-benzoxazin-4-yl)-7-fluoro-4-(3-oxocyclobutyl)-8-(2,3,5-trifluorophenyl)quinoline-3-carboxamide] | < 100 nM | < 0.1 µg/mL | < 0.1 µg/mL | < 0.1 µg/mL
O=C(NN1CCOc2ccccc21)c1cnc2c(-c3cc(F)cc(F)c3F)c(F)ccc2c1N1C[C@@H](F)[C@H](F)C1 [Example 5.92, 4-[(3R,4R)-3,4-difluoropyrrolidin-1-yl]-N-(2,3-dihydro-1,4-benzoxazin-4-yl)-7-fluoro-8-(2,3,5-trifluorophenyl)quinoline-3-carboxamide] | – | < 0.1 µg/mL | – | < 0.1 µg/mL
O=C(NN1CCOc2ccccc21)c1cnc2c(-c3cc(C(F)(F)F)cc(F)c3F)c(F)ccc2c1N1CCOCC1 [Example 5.94, 8-(2,3-difluoro-5-(trifluoromethyl)phenyl)-N-(2,3-dihydro-4H-benzo[b][1,4]oxazin-4-yl)-7-fluoro-4-morpholinoquinoline-3-carboxamide] | < 100 nM | – | – | –
N#Cc1c(Cl)cc(C(F)(F)F)cc1-c1cccc2c(N3CCOCC3)c(C(=O)NN3CCOc4ccccc43)cnc12 [Example 5.76, 8-[3-chloro-2-cyano-5-(trifluoromethyl)phenyl]-N-(2,3-dihydro-1,4-benzoxazin-4-yl)-4-morpholino-quinoline-3-carboxamide] | 100 to 1000 nM | – | – | –
O=C(NN1CCOc2ccccc21)c1cnc2c(-c3cc(F)cc(F)c3F)c(F)c(F)cc2c1N1CCOCC1 [Example 5.105, N-(2,3-dihydro-4H-benzo[b][1,4]oxazin-4-yl)-6,7-difluoro-4-morpholino-8-(2,3,5-trifluorophenyl)quinoline-3-carboxamide] | < 100 nM | – | – | –
N#Cc1c(F)cc(C(F)(F)F)cc1-c1cccc2c(N3CCOCC3)c(C(=O)NN3CCOc4ccccc43)cnc12 [Example 5.81, 8-[2-cyano-3-fluoro-5-(trifluoromethyl)phenyl]-N-(2,3-dihydro-1,4-benzoxazin-4-yl)-4-morpholino-quinoline-3-carboxamide] | 100 to 1000 nM | – | – | –
Nc1c(Cl)cc(C(F)(F)F)cc1-c1cccc2c(N3CCOCC3)c(C(=O)NN3CCOc4ccccc43)cnc12 [Example 5.77, 8-[2-amino-3-chloro-5-(trifluoromethyl)phenyl]-N-(2,3-dihydro-1,4-benzoxazin-4-yl)-4-morpholino-quinoline-3-carboxamide] | < 100 nM and 100 to 1000 nM | – | – | –
O=C(NN1CCOc2ccccc21)c1cnc2c(-c3cc(C(F)(F)F)cc(F)c3F)c(F)ccc2c1C1CS(=O)(=O)C1 [Example 5.107, 8-(2,3-difluoro-5-(trifluoromethyl)phenyl)-N-(2,3-dihydro-4H-benzo[b][1,4]oxazin-4-yl)-4-(1,1-dioxidothietan-3-yl)-7-fluoroquinoline-3-carboxamide] | 100 to 1000 nM | < 0.1 µg/mL | – | –
O=C(NN1CCOc2ccccc21)c1cnc2c(-c3cc(F)cc(S(F)(F)(F)(F)F)c3)c(F)ccc2c1C1CCOC1 (stereo not shown) [Example 5.102, N-(2,3-dihydro-4H-benzo[b][1,4]oxazin-4-yl)-7-fluoro-8-(3-fluoro-5-(pentafluoro-sulfanyl)phenyl)-4-(tetrahydrofuran-3-yl)quinoline-3-carboxamide] | < 100 nM | – | – | –
O=C(NN1CCOc2ccccc21)c1cnc2c(-c3cc(F)cc(F)c3F)c(F)ccc2c1C1CC(F)C1 (stereo not shown) [Example 5.101, N-(2,3-dihydro-4H-benzo[b][1,4]oxazin-4-yl)-7-fluoro-4-(3-fluorocyclobutyl)-8-(2,3,5-trifluorophenyl)quinoline-3-carboxamide] | < 100 nM | – | – | –
